Converted amounts (≈) assume the structure as drawn.
Tests used:
MRSA USA300 [1] = test: microbe, parasite or virus in culture
Procedure: MRSA USA300 bacteria from −80 °C freezer stock were cultured on an LB agar plate overnight. One bacteria colony was added to a 6 mL fresh MHB with constant shaking at 200 rpm at 37 °C. The bacteria were transferred daily by inoculating 10 μL of stationary-phase culture into […] of MHB in a 1 mL cap-clipped Eppendorf tube. Then, 20 μL of bacteria aliquot was added to […] of MHB broth, with or without [R4W4], at a final concentration of the MIC overnight in an […] at 37 °C for five transfers. […] […] Experiments were performed in triplicates. Every time we increased the concentration of [R4W4], a sample of the induction generation was inoculated into 20% (vol/vol) glycerol and stored at −70 °C. The final MIC values of [R4W4], vancomycin, and levofloxacin were determined by modified microbroth dilution assay.

MRSA USA300 [2] = test: microbe, parasite or virus in culture; settings: MRSA USA300, overnight 37 °C, duplicate
Procedure: The interaction of [R4W4], melittin, and vancomycin with LTA in the presence of MRSA was determined using a microbroth dilution assay. Two-fold serial dilution was used to achieve a 100 μL final concentration of the antibacterial agents in a 96 microplate well. A 360 μL S. aureus LTA (Sigma Aldrich stock 5 mg/mL) was added to 17.64 mL MHB containing MRSA (5 x 10^5 CFU/mL) to achieve the final concentration of S. aureus LTA 100 μg/mL. Then, 100 μL aliquots of MHB (MRSA (5 × 10^5 CFU/mL) and 100 μg/mL S. aureus LTA) were added to the 96 microtiter wells containing the antibacterial agents. The microplate was incubated overnight at 37 °C to obtain the MICs. Controls were bacteria grown in the presence of LTA alone and in MHB alone.

MRSA USA300 [3] = test: Checkered board synergy assay with gentamicin; format: cell-based, Staphylococcus aureus
Procedure: (§1) An amount of 100 µL of [R4W4] peptide test solution at a final concentration of 512 µg/mL was added to each well A-G column 1 in plate A using a multi-channel pipette. A 50 µL MH Broth was added to micro-plate well A-G columns 2–9. Using a multi-channel pipette, a two-fold serial dilution was performed by removing 50 µL solution from column 1 and was added to column 2 with thorough mixing. The micro-pipette was discarded after each transfer. The last portion after column 9 was discarded. In another microplate, 100 µL MHB was added to well B-G columns 1–11 using a multi-channel pipette. A 200 µL gentamicin test solution 512 µg/mL was added to row A, columns 1–11. A two-fold serial dilution was performed by removing 100 µL from rows A to B. The last portion was discarded. Using eight multi-channel pipettes, 50 µL of gentamicin test solution was transferred in the ordinate column A-G row 1 to the first microplate. The plate was incubated at 37 °C for 18–24 h. The fractional inhibitory concentration (FIC) of the antibacterial agents and the fractional inhibitory concentration index (FICI) of the two antibacterial agents were determined to evaluate the synergistic interaction. The FICI was interpreted as follows: FICI ≤ 0.5, synergy; 0.5 < FICI ≤ 1, partial synergy; 1 ≤ FICI < 4, additive effect or indifference; 4 ≤ FICI antagonism and calculated from the mean values from multiple experiments.

E. coli 25922 = test: Checkered board synergy assay with gentamicin; format: cell-based, Escherichia coli
Procedure: as §1

`C[C@H]1COc2c(N3CCN(C)CC3)c(F)cc3c(=O)c(C(=O)O)cn1c23` [levofloxacin, Levofloxacin] was tested, and the “MIC against index isolate (no serial passage)” value (MRSA USA300 [1]; MRSA USA300 index strain, MIC in duplicate) was 1 µg/mL (≈ 2.77 µM), the “change in MIC after serial passage” value (MRSA USA300 [1]; MRSA USA300 passaged versus index strain) was 2 folds and the MIC (MRSA USA300 [1]; Staphylococcus aureus, MRSA|USA300, read-out: MIC against serial passaged [R4W4]-resistant isolate) was 2 µg/mL (≈ 5.53 µM).

In the case of `CC[C@H](C)[C@H](NC(=O)CN)C(=O)NCC(=O)N[C@@H](C)C(=O)N[C@H](C(=O)N[C@@H](CC(C)C)C(=O)N[C@@H](CCCCN)C(=O)N[C@H](C(=O)N[C@@H](CC(C)C)C(=O)N[C@H](C(=O)N[C@H](C(=O)NCC(=O)N[C@@H](CC(C)C)C(=O)N1CCC[C@H]1C(=O)N[C@@H](C)C(=O)N[C@@H](CC(C)C)C(=O)N[C@H](C(=O)N[C@@H](CO)C(=O)N[C@@H](Cc1c[nH]c2ccccc12)C(=O)N[C@H](C(=O)N[C@@H](CCCCN)C(=O)N[C@@H](CCCNC(=N)N)C(=O)N[C@@H](CCCCN)C(=O)N[C@@H](CCCNC(=N)N)C(=O)N[C@@H](CCC(N)=O)C(=O)N[C@@H](CCC(N)=O)C(N)=O)[C@@H](C)CC)[C@@H](C)CC)[C@@H](C)O)[C@@H](C)O)C(C)C)C(C)C` [melittin, reference compound], the “MIC in the presence of LTA” value (MRSA USA300 [2]; 100 μg/mL S. aureus LTA in MHB) is reported as 32 µg/mL and the “MIC in the absence of LTA” value (MRSA USA300 [2]; MHB) is reported as 8 µg/mL.

`CNC(C)C1CCC(N)C(OC2C(N)CC(N)C(OC3OCC(C)(O)C(NC)C3O)C2O)O1` (stereo not shown) [Gentamicin, gentamicin, reference compound] was tested, and the “MIC(B+A) (gentamicin in combination with [R4W4])” value (MRSA USA300 [3]; MRSA USA300, checkered board) was 0.05 µg/mL, the “MICB (gentamicin alone)” value (MRSA USA300 [3]; MRSA USA300, checkered board) was 0.09 µg/mL and the FICB (MRSA USA300 [3]; MRSA USA300, fractional inhibitory concentration of gentamicin) was 0.56. For the same molecule, the “reduction in MIC value in combination” value (MRSA USA300 [3]; MRSA, [R4W4] + gentamicin combination versus alone) was ~ 2 fold, the “MIC(B+A) (gentamicin in combination with [R4W4])” value (E. coli 25922; E. coli 25922, checkered board) was 0.19 µg/mL and the “MICB (gentamicin alone)” value (E. coli 25922; E. coli 25922, checkered board) was 0.75 µg/mL. The FICB (E. coli 25922; E. coli 25922, fractional inhibitory concentration of gentamicin) was 0.25 and the “reduction in MIC value in combination” value (E. coli 25922; E. coli, [R4W4] + gentamicin combination versus alone) was “approximately 4 fold”.
